{"source": "patent US12409172B2", "about": "“Dosage regimen” (UNION therapeutics A/S, priority 2023, dated 2025)", "key": {"[1]": {"test_system": "TARC and other inflammatory markers in atopic dermatitis skin lesions", "assay": "Skin tape strip biomarkers (OLINK FLEX panel) in the phase 2b atopic dermatitis study (Example 11)", "type": "in vivo, human", "settings": "all treatment arms (20, 30, 40 mg BID)", "source_text": "Stratum corneum skin samples were collected at the designated time points using the tape stripping method to evaluate biomarker expression levels. Tape stripping is a minimally invasive, nonscarring approach using serial adhesive films to capture the stratum corneum and the upper part of the granular layer.\nAt Baseline, before administration of study drug, 1 lesional and 1 non-lesional area were identified, and 20 consecutive skin samples were collected from each area. At Week 16, the same procedure was repeated only from the same lesional areas sampled at Baseline.\nSkin tape strip samples were taken from lesional and non-lesional skin at baseline and lesional skin at week 16 of patients participating in the phase 2b, double-blinded, placebo-controlled, dose-finding study (20 mg, 30 mg and 40 mg orismilast modified release tablets BID) in patients with moderate-to-severe atopic dermatitis (NCT05469464) described in Example 8. […] The primary objective of the biomarker study was to evaluate the effect of orismilast on a broad spectrum of inflammatory markers in atopic dermatitis skin lesions using tape strips as a non-invasive sampling technology combined with the Olink® technology (OLINK® FLEX panel) using analogous methods to those described in Example 10.\nA linear mixed effect model was used on all patients to estimate Ismeans with standard error and adjusted p value."}, "[2]": {"test_system": "adults with moderate-to-severe plaque-type psoriasis", "assay": "Phase 2b dose-ranging study in psoriasis (Example 3): treatment-emergent adverse events and discontinuations", "type": "in vivo, human", "source_text": "• Percentage change in Psoriasis […] and Severity Index (PASI) score from Baseline at Week 16. Key Secondary Endpoints • Patients achieving 75% reduction in PASI (PASI75) response at Week 16. • Patients achieving a score of Clear (0) or Almost Clear (1) and an at least 2-point improvement in Investigator Global Assessment (IGA) at Week 16. […] Safety Endpoints: • The occurrence, severity, and seriousness of treatment-emergent adverse events (TEAEs) reported over the 16-week Treatment Period and the 4-week Follow-up Period. • Changes from Baseline in physical examination; vital sign measurements (body temperature, respiration rate, heart rate, and systolic and diastolic blood pressure measurements); and body weight over the 16-week Treatment Period and the 4-week Follow-up Period. • Changes from Baseline in electrocardiogram (ECG) findings over the 16-week Treatment Period and the 4-week Follow-up Period. • Changes from Baseline in safety laboratory values (haematology, serum chemistry, and urinalysis) over the 16-week Treatment Period and the 4-week Follow-up Period. • Hospital Anxiety and Depression Scale at each visit except Week 2. • Columbia-Suicide Severity Rating Scale (C-SSRS) at each visit except Weeks 1 and 2. Exploratory Endpoints: • Change from Baseline in Physician's Global Assessment of Fingernails (PGA-F) at Week 16. • Change in Scalp-Specific Investigator Global Assessment (ss-IGA) from Baseline at Week 16 in the subgroup of patients with Baseline score of at least 2 (mild scalp psoriasis). • Change from Baseline of scalp itch Numeric Rating Scale (NRS) at Week 16 in the subgroup of patients with Baseline score of at least 4 on the 11-point NRS. • Change from Baseline in joint pain NRS at Week 16 in patients with psoriatic arthritis (PsA) and a Baseline joint pain score of at least 4. • Change in cardiovascular risk factors at Week 16. The following parameters will be collected: weight, body mass index, waist and hip circumferences, blood pressure, fasting serum glucose, triglycerides, cholesterol (total and high-density lipoprotein/low-density lipoprotein fractions), and C-reactive protein. • Change from Baseline in skin biomarkers at Week 16 collected via tape stripping and analysed using proteomic methods. • Plasma levels of the drug and its metabolites at scheduled visits. Study Design\nAt Baseline and each visit from Week 4 onwards, PASI, BSA, IGA, and PSS were assessed. Quality of life was assessed by administration of DLQI at Baseline and at Weeks 16 and 20 visits. Additional efficacy parameters include: an ss-IGA, a Physician Global Assessment of fingernail psoriasis (PGA-F), and patient's joint pain NRS for those with a diagnosis of PsA. These parameters were assessed at Baseline and Weeks 16 and 20. Safety evaluations include adverse events (Aes), laboratory and vital sign assessments, physical examinations, as well as mood change evaluation by patient (Hospital Anxiety and Depression Scale) and suicidal ideation evaluation by Investigator (C-SSRS). A panel of cardiovascular risk factors were assessed at Baseline and Week 16."}}, "data": [{"smiles": "O=C(Cc1c(Cl)c[n+]([O-])cc1Cl)c1ccc(OC(F)F)c2c1OC1(CCS(=O)(=O)CC1)O2", "note": "[orismilast, 2-(3,5-dichloro-1-oxidopyridin-1-ium-4-yl)-1-[7-(difluoromethoxy)-1′,1′-dioxospiro[1,3-benzodioxole-2,4′-thiane]-4-yl]ethanone]", "values": [{"measurement": "TARC in lesional skin at week 16 of treatment", "setting": "[1]", "value": "significant reduction"}, {"measurement": "Abdominal pain upper, adverse event leading to treatment discontinuation", "setting": "[2]; 20 mg BID", "value": 2.1, "unit": "%"}, {"measurement": "Abdominal pain upper, treatment-emergent adverse event", "setting": "[2]; 20 mg BID", "value": 2.1, "unit": "%"}, {"measurement": "Diarrhea (incl. loose stool), adverse event leading to treatment discontinuation", "setting": "[2]; 20 mg BID", "value": 10.4, "unit": "%"}, {"measurement": "Diarrhea (incl. loose stool), treatment-emergent adverse event", "setting": "[2]; 20 mg BID", "value": 37.5, "unit": "%"}, {"measurement": "Dizziness, adverse event leading to treatment discontinuation", "setting": "[2]; 20 mg BID", "value": 2.1, "unit": "%"}, {"measurement": "Dizziness, treatment-emergent adverse event", "setting": "[2]; 20 mg BID", "value": 6.3, "unit": "%"}, {"measurement": "Headache, adverse event leading to treatment discontinuation", "setting": "[2]; 20 mg BID", "value": 2.1, "unit": "%"}, {"measurement": "Headache, treatment-emergent adverse event", "setting": "[2]; 20 mg BID", "value": 12.5, "unit": "%"}, {"measurement": "Nausea, adverse event leading to treatment discontinuation", "setting": "[2]; 20 mg BID", "value": 4.2, "unit": "%"}, {"measurement": "Nausea, treatment-emergent adverse event", "setting": "[2]; 20 mg BID", "value": 22.9, "unit": "%"}, {"measurement": "Vomiting, adverse event leading to treatment discontinuation", "setting": "[2]; 20 mg BID", "value": 0, "unit": "%"}, {"measurement": "Vomiting, treatment-emergent adverse event", "setting": "[2]; 20 mg BID", "value": 6.3, "unit": "%"}, {"measurement": "discontinuations due to adverse events", "setting": "[2]; 20 mg BID", "value": 21, "unit": "%"}, {"measurement": "Abdominal pain upper, adverse event leading to treatment discontinuation", "setting": "[2]; 30 mg BID", "value": 2.0, "unit": "%"}, {"measurement": "Abdominal pain upper, treatment-emergent adverse event", "setting": "[2]; 30 mg BID", "value": 6.0, "unit": "%"}, {"measurement": "Diarrhea (incl. loose stool), adverse event leading to treatment discontinuation", "setting": "[2]; 30 mg BID", "value": 6.0, "unit": "%"}, {"measurement": "Diarrhea (incl. loose stool), treatment-emergent adverse event", "setting": "[2]; 30 mg BID", "value": 48.0, "unit": "%"}, {"measurement": "Dizziness, adverse event leading to treatment discontinuation", "setting": "[2]; 30 mg BID", "value": 2.0, "unit": "%"}, {"measurement": "Dizziness, treatment-emergent adverse event", "setting": "[2]; 30 mg BID", "value": 14.0, "unit": "%"}, {"measurement": "Headache, adverse event leading to treatment discontinuation", "setting": "[2]; 30 mg BID", "value": 4.0, "unit": "%"}, {"measurement": "Headache, treatment-emergent adverse event", "setting": "[2]; 30 mg BID", "value": 26.6, "unit": "%"}, {"measurement": "Nausea, adverse event leading to treatment discontinuation", "setting": "[2]; 30 mg BID", "value": 8.0, "unit": "%"}, {"measurement": "Nausea, treatment-emergent adverse event", "setting": "[2]; 30 mg BID", "value": 38.0, "unit": "%"}, {"measurement": "Vomiting, adverse event leading to treatment discontinuation", "setting": "[2]; 30 mg BID", "value": 2.0, "unit": "%"}, {"measurement": "Vomiting, treatment-emergent adverse event", "setting": "[2]; 30 mg BID", "value": 8.0, "unit": "%"}, {"measurement": "discontinuations due to adverse events", "setting": "[2]; 30 mg BID", "value": 20, "unit": "%"}, {"measurement": "Abdominal pain upper, adverse event leading to treatment discontinuation", "setting": "[2]; 40 mg BID", "value": 7.5, "unit": "%"}, {"measurement": "Abdominal pain upper, treatment-emergent adverse event", "setting": "[2]; 40 mg BID", "value": 11.3, "unit": "%"}, {"measurement": "Diarrhea (incl. loose stool), adverse event leading to treatment discontinuation", "setting": "[2]; 40 mg BID", "value": 20.8, "unit": "%"}, {"measurement": "Diarrhea (incl. loose stool), treatment-emergent adverse event", "setting": "[2]; 40 mg BID", "value": 45.3, "unit": "%"}, {"measurement": "Dizziness, adverse event leading to treatment discontinuation", "setting": "[2]; 40 mg BID", "value": 1.9, "unit": "%"}, {"measurement": "Dizziness, treatment-emergent adverse event", "setting": "[2]; 40 mg BID", "value": 15.1, "unit": "%"}, {"measurement": "Headache, adverse event leading to treatment discontinuation", "setting": "[2]; 40 mg BID", "value": 3.8, "unit": "%"}, {"measurement": "Headache, treatment-emergent adverse event", "setting": "[2]; 40 mg BID", "value": 20.8, "unit": "%"}, {"measurement": "Nausea, adverse event leading to treatment discontinuation", "setting": "[2]; 40 mg BID", "value": 11.3, "unit": "%"}, {"measurement": "Nausea, treatment-emergent adverse event", "setting": "[2]; 40 mg BID", "value": 41.5, "unit": "%"}, {"measurement": "Vomiting, adverse event leading to treatment discontinuation", "setting": "[2]; 40 mg BID", "value": 5.7, "unit": "%"}, {"measurement": "Vomiting, treatment-emergent adverse event", "setting": "[2]; 40 mg BID", "value": 13.2, "unit": "%"}]}]}
